Test results taken from patent US12077503B2, “Substituted cyclic amides and their use as herbicides” (FMC CORPORATION, priority 2015, dated 2024).
Read-outs that look alike come from different tables or passages of the source.

Experiments:
Assay in all cases: Test A preemergence
Type in all cases: in vivo
[1] = tested on: ragweed (common ragweed, Ambrosia elatior); details: Ambrosia artemisiifolia, pre-emergence, 240 h; for pest or weed control at 125 g/ha: 125 g ai/ha; for pest or weed control at 500 g/ha: 500 g ai/ha
Method in brief: (§1)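 Visual injury scores from 0, no effect, to 100, complete control, were assigned versus untreated controls roughly 10 d after treatment in the greenhouse. Test chemicals, formulated with surfactant in a non-phytotoxic solvent, were applied to planted seeds as a preemergence soil spray or postemergence to one- to two-leaf plants 2 to 10 cm tall, in loam–sand soil.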

[2] = tested on: ryegrass, Italian (Italian ryegrass, Lolium multiflorum); details: Lolium multiflorum, pre-emergence, 240 h; for pest or weed control at 125 g/ha: 125 g ai/ha; for pest or weed control at 500 g/ha: 500 g ai/ha
Method in brief: as §1

[3] = tested on: barnyardgrass (Echinochloa crus-galli); details: Echinochloa crus-galli, pre-emergence, 240 h; for pest or weed control at 125 g/ha: 125 g ai/ha; for pest or weed control at 500 g/ha: 500 g ai/ha
Method in brief: as §1

[4] = tested on: giant foxtail (Setaria faberii); details: Setaria faberi, pre-emergence, 240 h; for pest or weed control at 125 g/ha: 125 g ai/ha; for pest or weed control at 500 g/ha: 500 g ai/ha
Method in brief: as §1

[5] = tested on: Kochia (Kochia scoparia); details: Bassia scoparia, pre-emergence, 240 h; for pest or weed control at 125 g/ha: 125 g ai/ha; for pest or weed control at 500 g/ha: 500 g ai/ha
Method in brief: as §1

[6] = Preemergence, visual injury rating after approximately 10 d, read-out: Ragweed plant response rating (0 to 100 scale, 0 is no effect, 100 is complete control)
[7] = preemergence, visual injury rating about 10 d after treatment, 0 to 100 scale (0 no effect, 100 complete control), read-out: Ragweed plant response rating
[8] = Preemergence, visual injury rating after approximately 10 d, read-out: Ryegrass, Italian plant response rating (0 to 100 scale, 0 is no effect, 100 is complete control)
[9] = preemergence, visual injury rating about 10 d after treatment, 0 to 100 scale (0 no effect, 100 complete control), read-out: Ryegrass, Italian plant response rating
[10] = Preemergence, visual injury rating after approximately 10 d, read-out: Barnyardgrass plant response rating (0 to 100 scale, 0 is no effect, 100 is complete control)
[11] = preemergence, visual injury rating about 10 d after treatment, 0 to 100 scale (0 no effect, 100 complete control), read-out: Barnyardgrass plant response rating
[12] = Preemergence, visual injury rating after approximately 10 d, read-out: Foxtail, Giant plant response rating (0 to 100 scale, 0 is no effect, 100 is complete control)
[13] = preemergence, visual injury rating about 10 d after treatment, 0 to 100 scale (0 no effect, 100 complete control), read-out: Foxtail, Giant plant response rating
[14] = Preemergence, visual injury rating after approximately 10 d, read-out: Kochia plant response rating (0 to 100 scale, 0 is no effect, 100 is complete control)
[15] = preemergence, visual injury rating about 10 d after treatment, 0 to 100 scale (0 no effect, 100 complete control), read-out: Kochia plant response rating
[16] = preemergence, 0 to 100 scale where 0 is no effect and 100 is complete control, read-out: Ragweed plant response rating
[17] = Preemergence, visual injury vs untreated controls after approximately 10 d, read-out: Ragweed plant response rating (0 to 100 scale where 0 is no effect and 100 is complete control)
[18] = preemergence, 0 to 100 scale where 0 is no effect and 100 is complete control, read-out: Ryegrass, Italian plant response rating
[19] = Preemergence, visual injury vs untreated controls after approximately 10 d, read-out: Ryegrass, Italian plant response rating (0 to 100 scale where 0 is no effect and 100 is complete control)
[20] = preemergence, 0 to 100 scale where 0 is no effect and 100 is complete control, read-out: Barnyardgrass plant response rating
[21] = Preemergence, visual injury vs untreated controls after approximately 10 d, read-out: Barnyardgrass plant response rating (0 to 100 scale where 0 is no effect and 100 is complete control)
[22] = preemergence, 0 to 100 scale where 0 is no effect and 100 is complete control, read-out: Foxtail, Giant plant response rating
[23] = Preemergence, visual injury vs untreated controls after approximately 10 d, read-out: Foxtail, Giant plant response rating (0 to 100 scale where 0 is no effect and 100 is complete control)
[24] = preemergence, 0 to 100 scale where 0 is no effect and 100 is complete control, read-out: Kochia plant response rating
[25] = Preemergence, visual injury vs untreated controls after approximately 10 d, read-out: Kochia plant response rating (0 to 100 scale where 0 is no effect and 100 is complete control)
[26] = preemergence, 0 to 100 scale where 0 is no effect and 100 is complete control, approx. 10 d, read-out: Ragweed plant response rating
[27] = preemergence, 0 to 100 scale where 0 is no effect and 100 is complete control, approx. 10 d, read-out: Ryegrass, Italian plant response rating
[28] = preemergence, 0 to 100 scale where 0 is no effect and 100 is complete control, approx. 10 d, read-out: Barnyardgrass plant response rating
[29] = preemergence, 0 to 100 scale where 0 is no effect and 100 is complete control, approx. 10 d, read-out: Foxtail, Giant plant response rating
[30] = preemergence, 0 to 100 scale where 0 is no effect and 100 is complete control, approx. 10 d, read-out: Kochia plant response rating

SMILES: CN1C[C@H](c2cc(C(F)(F)F)cs2)[C@@H](C(=O)Nc2ccccc2F)C1=O [Compound 962]
- pest or weed control at 125 g/ha [1, 6]: 20%
- pest or weed control at 500 g/ha [1, 7]: 30%
- pest or weed control at 125 g/ha [2, 8]: 0%
- pest or weed control at 500 g/ha [2, 9]: 30%
- pest or weed control at 125 g/ha [3, 10]: 90%
- pest or weed control at 500 g/ha [3, 11]: 90%
- pest or weed control at 125 g/ha [4, 12]: 90%
- pest or weed control at 500 g/ha [4, 13]: 90%
- pest or weed control at 125 g/ha [5, 14]: 50%
- pest or weed control at 500 g/ha [5, 15]: 70%

SMILES: COc1c(F)ccc([C@H]2CN(C)C(=O)[C@@H]2C(=O)Nc2ccccc2S(C)(=O)=O)c1Cl [Compound 897]
- pest or weed control at 125 g/ha [1, 16]: 20%
- pest or weed control at 500 g/ha [1, 17]: 60%
- pest or weed control at 125 g/ha [2, 18]: 20%
- pest or weed control at 500 g/ha [2, 19]: 50%
- pest or weed control at 125 g/ha [3, 20]: 80%
- pest or weed control at 500 g/ha [3, 21]: 90%
- pest or weed control at 125 g/ha [4, 22]: 90%
- pest or weed control at 500 g/ha [4, 23]: 100%
- pest or weed control at 125 g/ha [5, 24]: 60%
- pest or weed control at 500 g/ha [5, 25]: 90%

SMILES: Cc1cc([C@H]2CN(C)C(=O)[C@@H]2C(=O)Nc2ccc(F)c(F)c2F)ccc1Br [Compound 1101]
- pest or weed control at 125 g/ha [1, 26]: 0%
- pest or weed control at 500 g/ha [1, 7]: 40%
- pest or weed control at 125 g/ha [2, 27]: 30%
- pest or weed control at 500 g/ha [2, 9]: 70%
- pest or weed control at 125 g/ha [3, 28]: 90%
- pest or weed control at 500 g/ha [3, 11]: 90%
- pest or weed control at 125 g/ha [4, 29]: 90%
- pest or weed control at 500 g/ha [4, 13]: 90%
- pest or weed control at 125 g/ha [5, 30]: 60%
- pest or weed control at 500 g/ha [5, 15]: 70%

SMILES: CN1C[C@H](c2cc(F)cc(C(F)(F)F)c2)[C@@H](C(=O)Nc2ccc(F)c(F)c2F)C1=O [Compound 993]
- pest or weed control at 125 g/ha [1, 6]: 0%
- pest or weed control at 500 g/ha [1, 7]: 60%
- pest or weed control at 125 g/ha [2, 8]: 80%
- pest or weed control at 500 g/ha [2, 9]: 90%
- pest or weed control at 125 g/ha [3, 10]: 90%
- pest or weed control at 500 g/ha [3, 11]: 90%
- pest or weed control at 125 g/ha [4, 12]: 90%
- pest or weed control at 500 g/ha [4, 13]: 90%
- pest or weed control at 125 g/ha [5, 14]: 0%
- pest or weed control at 500 g/ha [5, 15]: 50%

SMILES: O=C(Nc1cccc(F)c1F)[C@H]1C(=S)NC[C@@H]1c1ccc(C(F)(F)F)cc1 (racemic) [Compound 1048]
- pest or weed control at 125 g/ha [1, 6]: 50%
- pest or weed control at 500 g/ha [1, 7]: 80%
- pest or weed control at 125 g/ha [2, 8]: 20%
- pest or weed control at 500 g/ha [2, 9]: 40%
- pest or weed control at 125 g/ha [3, 10]: 90%
- pest or weed control at 500 g/ha [3, 11]: 90%
- pest or weed control at 125 g/ha [4, 12]: 90%
- pest or weed control at 500 g/ha [4, 13]: 90%
- pest or weed control at 125 g/ha [5, 14]: 90%
- pest or weed control at 500 g/ha [5, 15]: 90%

SMILES: O=C1NC[C@H](c2ccc3c(c2)CCC3)[C@H]1C(=O)Nc1ccccc1F [Compound 1045]
- pest or weed control at 125 g/ha [1, 6]: 0%
- pest or weed control at 500 g/ha [1, 7]: 30%
- pest or weed control at 125 g/ha [2, 8]: 30%
- pest or weed control at 500 g/ha [2, 9]: 70%
- pest or weed control at 125 g/ha [3, 10]: 90%
- pest or weed control at 500 g/ha [3, 11]: 90%
- pest or weed control at 125 g/ha [4, 12]: 80%
- pest or weed control at 500 g/ha [4, 13]: 90%
- pest or weed control at 125 g/ha [5, 14]: 0%
- pest or weed control at 500 g/ha [5, 15]: 20%

SMILES: O=C1NC[C@H](c2cc(F)c(C(F)(F)F)c(F)c2)[C@H]1C(=O)Nc1cccc(F)c1F [Compound 838]
- pest or weed control at 125 g/ha [1, 16]: 40%
- pest or weed control at 500 g/ha [1, 17]: 60%
- pest or weed control at 125 g/ha [2, 18]: 20%
- pest or weed control at 500 g/ha [2, 19]: 60%
- pest or weed control at 125 g/ha [3, 20]: 90%
- pest or weed control at 500 g/ha [3, 21]: 90%
- pest or weed control at 125 g/ha [4, 22]: 90%
- pest or weed control at 500 g/ha [4, 23]: 90%
- pest or weed control at 125 g/ha [5, 24]: 70%
- pest or weed control at 500 g/ha [5, 25]: 80%

SMILES: Cc1c(F)ccc([C@H]2CN(C)C(=O)[C@@H]2C(=O)Nc2ccc(F)cc2F)c1F [Compound 835]
- pest or weed control at 125 g/ha [1, 16]: 0%
- pest or weed control at 500 g/ha [1, 17]: 0%
- pest or weed control at 125 g/ha [2, 18]: 30%
- pest or weed control at 500 g/ha [2, 19]: 70%
- pest or weed control at 125 g/ha [3, 20]: 90%
- pest or weed control at 500 g/ha [3, 21]: 100%
- pest or weed control at 125 g/ha [4, 22]: 90%
- pest or weed control at 500 g/ha [4, 23]: 100%
- pest or weed control at 125 g/ha [5, 24]: 80%
- pest or weed control at 500 g/ha [5, 25]: 90%

SMILES: COc1ccc([C@H]2CN(C)C(=O)[C@@H]2C(=O)Nc2ccccc2SC)cc1C(F)(F)F [Compound 991]
- pest or weed control at 125 g/ha [1, 6]: 0%
- pest or weed control at 500 g/ha [1, 7]: 30%
- pest or weed control at 125 g/ha [2, 8]: 0%
- pest or weed control at 500 g/ha [2, 9]: 50%
- pest or weed control at 125 g/ha [3, 10]: 70%
- pest or weed control at 500 g/ha [3, 11]: 90%
- pest or weed control at 125 g/ha [4, 12]: 90%
- pest or weed control at 500 g/ha [4, 13]: 90%
- pest or weed control at 125 g/ha [5, 14]: 0%
- pest or weed control at 500 g/ha [5, 15]: 60%

SMILES: O=C1NC[C@H](c2ccc3c(c2)OCO3)[C@H]1C(=O)Nc1cccc(F)c1C(F)(F)F [Compound 1127]
- pest or weed control at 125 g/ha [1, 26]: 0%
- pest or weed control at 500 g/ha [1, 16]: 0%
- pest or weed control at 125 g/ha [2, 27]: 0%
- pest or weed control at 500 g/ha [2, 18]: 0%
- pest or weed control at 125 g/ha [3, 28]: 0%
- pest or weed control at 500 g/ha [3, 20]: 30%
- pest or weed control at 125 g/ha [4, 29]: 0%
- pest or weed control at 500 g/ha [4, 22]: 70%
- pest or weed control at 125 g/ha [5, 30]: 0%
- pest or weed control at 500 g/ha [5, 24]: 0%

SMILES: CN1C[C@H](c2cc(F)cc(F)c2)[C@@H](C(=O)Nc2ccc(C(F)(F)F)nc2)C1=O [Compound 870]
- pest or weed control at 125 g/ha [1, 16]: 0%
- pest or weed control at 500 g/ha [1, 17]: 0%
- pest or weed control at 125 g/ha [2, 18]: 0%
- pest or weed control at 500 g/ha [2, 19]: 0%
- pest or weed control at 125 g/ha [3, 20]: 50%
- pest or weed control at 500 g/ha [3, 21]: 80%
- pest or weed control at 125 g/ha [4, 22]: 20%
- pest or weed control at 500 g/ha [4, 23]: 50%
- pest or weed control at 125 g/ha [5, 24]: 0%
- pest or weed control at 500 g/ha [5, 25]: 0%
